# Test results from patent US8754115B2, “Fungicidal pyrazoles” (E I du Pont de Nemours and Company, priority 2010, dated 2014).
# Marks after values point to notes of the source that are not given here.
# Experiments:
# Assay type in all cases: in vivo
# [1] = system: Blumeria graminis f. sp. tritici; assay: Test F: preventive spray on wheat seedlings, visual disease rating (wheat powdery mildew)
# Procedure, shortened: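 Visual ratings (0–100% control relative to controls) taken 8 days after spore-dust inoculation at 20° C. Inoculation followed one day after a protective run-off spray of 200 ppm suspension, equal to 800 g/ha, or 40 ppm where flagged, made in acetone/water with 250 ppm surfactant.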
# Alternaria solani = assay: Test B: preventive spray on tomato seedlings, visual disease rating (tomato early blight)
# Excerpt: (§1) General protocol for preparing test suspensions for Tests A-F: the test compounds were first dissolved in acetone in an amount equal to 3% of the final volume and then suspended at the desired concentration (in ppm) in acetone and purified water (50/50 mix by volume) containing 250 ppm of the surfactant Trem® 014 (polyhydric alcohol esters). The resulting test suspensions were then used in Tests A-F. Spraying a 200 ppm test suspension to the point of run-off on the test plants was the equivalent of a rate of 800 g/ha. Unless otherwise indicated, the rating values indicate a 200 ppm test suspension was used. (An asterisk “*” next to the rating value indicates a 40 ppm test suspension was used.)
# (§2) The test suspension was sprayed to the point of run-off on tomato seedlings. The following day the seedlings were inoculated with a spore suspension of Alternaria solani (the causal agent of tomato early blight) and incubated in a saturated atmosphere at 27° C. for 48 h, and then moved to a growth chamber at 20° C. for 5 days, after which time visual disease ratings were made.
# (§3) Results for Tests A-F are given in Table A. In the Table, a rating of 100 indicates 100% disease control and a rating of 0 indicates no disease control (relative to the controls). A dash (-) indicates no test results. An asterisk “*” next to the rating value indicates a 40 ppm test suspension was used.
# Botrytis cinerea = assay: Test A: preventive spray on tomato seedlings, visual disease rating (tomato Botrytis)
# Procedure, shortened: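 Preventive test: Botrytis cinerea spores applied one day after run-off spraying at 200 ppm (≈800 g/ha), or 40 ppm where asterisked. Incubation 48 h at 20 °C in saturated air, then 3 days at 24 °C; disease scored visually from 0 (no control) to 100 (complete control) versus untreated.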
# Septoria nodorum = assay: Test C: preventive spray on wheat seedlings, visual disease rating (Septoria glume blotch)
# Excerpt: as §1
# as §2, with “wheat” for “tomato”, “Septoria nodorum” for “Alternaria solani”, “Septoria glume blotch)” for “tomato early blight)”, “24°” for “27°”, “6” for “5”
# as §3
# [2] = system: Puccinia recondite f. sp. tritici; assay: Test E2: preventive spray on wheat seedlings, visual disease rating (wheat leaf rust)
# Procedure, shortened: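 Wheat seedlings were inoculated with leaf rust spores one day after a run-off spray of compound at 200 ppm (asterisk: 40 ppm) in 50/50 acetone/water with 250 ppm Trem 014. Incubation: 24 h saturated humidity, 20 °C; then 7 days growth chamber, 20 °C. Disease control scored visually, 0–100% relative to controls.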
# Septoria tritici = assay: Test D: preventive spray on wheat seedlings, visual disease rating (wheat leaf blotch)
# Procedure, shortened: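 Protection was scored visually on a 0–100% disease-control scale versus controls, 19 days after plants were moved to 20 °C following 48 h of 24 °C saturated humidity. Spore inoculation with S. tritici took place one day after a preventive run-off spray, usually at 200 ppm (800 g/ha) and at 40 ppm where asterisked.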
# [3] = system: Puccinia recondite f. sp. tritici; assay: Test E1: curative spray on wheat seedlings after inoculation, visual disease rating (wheat leaf rust)
# Excerpt: as §1
# Wheat seedlings were inoculated with a spore suspension of Puccinia recondite f. sp. tritici (the causal agent of wheat leaf rust) and incubated in a saturated atmosphere at 20° C. for 24 h, and then moved to a growth chamber at 20° C. for 2 days. After 2 days, the test suspension was sprayed to the point of run-off on the wheat seedlings, and then the seedlings were moved back to the growth chamber at 20° C. for 6 days. Upon removal, visual disease ratings were made.
# as §3
# [4] = no asterisk: standard test suspension, not 40 ppm
# [5] = no asterisk: standard test suspension, not 40 ppm, 100 = 100% disease control, 0 = none
# [6] = asterisk: 40 ppm test suspension
Compound,"Test F rating (% disease control) [1, 4] [%]",Test B rating (% disease control) (Alternaria solani; [4]) [%],Test A rating (% disease control) (Botrytis cinerea; [5]) [%],Test C rating (% disease control) (Septoria nodorum; [4]) [%],"Test E2 rating (% disease control) [2, 4] [%]",Test D rating (% disease control) (Septoria tritici; [4]) [%],"Test E1 rating (% disease control) [3, 4] [%]",other results
Cc1nn(C)c(-c2c(F)cccc2F)c1[S+]([O-])c1ccc(Cl)cc1 (stereo not shown) [compound 63],76,0,0,0,28,0,0,–
Cc1nn(C)c(-c2c(Cl)cccc2Cl)c1C(O)c1ccc(F)cc1Cl (stereo not shown) [compound 69],97,100,99,96,99,100,0,–
COc1ccc(-c2c(Oc3ccc(F)cc3Cl)c(C)nn2C)c(Cl)c1 [compound 31],96,0,100,0,92,100,0,–
Cc1nn(C)c(-c2c(F)cc(F)cc2F)c1C(=O)c1ccc(F)cc1F [compound 60],99,0,75,0,55,0,0,–
Cc1nn(C)c(-c2ccc(F)cc2Cl)c1Oc1ccc(C#N)cc1Cl [compound 43],97,0,98,0,98,100,0,–
Cc1nn(C)c(-c2ccc(F)cc2Cl)c1Nc1ccc(Cl)cc1Cl [compound 44],–,–,–,–,–,–,–,"Test F rating (% disease control) [1, 6]: 100* %; Test B rating (% disease control) (Alternaria solani; [6]): 0* %; Test A rating (% disease control) (Botrytis cinerea; [6]): 99* %; Test C rating (% disease control) (Septoria nodorum; [6]): 0* %; Test E2 rating (% disease control) [2, 6]: 99* %; Test D rating (% disease control) (Septoria tritici; [6]): 99* %; Test E1 rating (% disease control) [3, 6]: 0* %"
Cc1nn(C)c(-c2ccc(F)cc2Cl)c1C(O)c1ccc(F)cc1F (stereo not shown) [compound 17],100,94,100,60,100,100,83,–
Cc1nn(C)c(-c2ccc(F)cc2Cl)c1C(O)c1ccc(C#N)cc1F (stereo not shown) [compound 25],96,99,100,89,100,100,9,–
Cc1nn(C)c(-c2c(F)cccc2Cl)c1C(O)c1ccc(C#N)cc1F (stereo not shown) [compound 38],98,99,85,100,100,100,0,–
Cc1nn(C)c(-c2ccc(F)cc2Cl)c1Nc1ccc(F)cc1 [compound 41],0,64,100,0,41,98,0,–
Cc1nn(C)c(-c2ccc(F)cc2Cl)c1Nc1ccc(F)cc1Br [compound 58],–,–,–,–,–,–,–,"Test F rating (% disease control) [1, 6]: 97* %; Test B rating (% disease control) (Alternaria solani; [6]): 8* %; Test A rating (% disease control) (Botrytis cinerea; [6]): 100* %; Test C rating (% disease control) (Septoria nodorum; [6]): 0* %; Test E2 rating (% disease control) [2, 6]: 98* %; Test D rating (% disease control) (Septoria tritici; [6]): 100* %; Test E1 rating (% disease control) [3, 6]: 0* %"
"Cc1nn(C)c(-c2ccccc2Br)c1C(O)c1ccc(F)cc1Cl (single isomer, unassigned) [compound 80]",99,97,99,69,99,100,99,–
COc1cc(F)c(C(O)c2c(C)nn(C)c2-c2ccc(F)cc2Cl)c(F)c1 (stereo not shown) [compound 20],–,–,–,–,–,–,–,"Test F rating (% disease control) [1, 6]: 92* %; Test B rating (% disease control) (Alternaria solani; [6]): 97* %; Test A rating (% disease control) (Botrytis cinerea; [6]): 97* %; Test C rating (% disease control) (Septoria nodorum; [6]): 0* %; Test E2 rating (% disease control) [2, 6]: 99* %; Test D rating (% disease control) (Septoria tritici; [6]): 100* %; Test E1 rating (% disease control) [3, 6]: 99* %"
Cc1nn(C)c(-c2c(F)cccc2F)c1C(O)c1c(F)cc(F)cc1F (stereo not shown) [compound 15],100,100,100,86,100,100,68,–
Cc1nn(C)c(-c2c(F)cccc2Cl)c1C(O)c1c(Cl)cc(Cl)cc1Cl (stereo not shown) [compound 55],95,97,99,78,100,100,99,–
"5-(2,6-difluorophenyl)-α-(4-fluoro-2-methylphenyl)-3-methoxy-1-methyl-1H-pyrazole-4-methanol [Compound 157]",98,93,100,0,89,100,65,–
Cc1nn(C)c(-c2ccc(F)cc2Cl)c1C(O)c1c(F)cc(F)cc1F (stereo not shown) [compound 19],100,100,99,100,100,100,100,–
"Cn1nc(C#N)c(C(O)c2ccc(F)cc2Cl)c1-c1c(F)cccc1F (stereo not shown) [Compound 53, 4-[(2-chloro-4-fluorophenyl)hydroxymethyl]-5-(2,6-difluorophenyl)-1-methyl-1H-pyrazole-3-carbonitrile]",–,–,–,–,–,–,–,"pest or weed control at 40 ppm ([1]; Blumeria graminis, 192 h, asterisk: 40 ppm test suspension): 43%; pest or weed control at 40 ppm (Alternaria solani; Alternaria solani, 168 h, asterisk: 40 ppm test suspension): 99%; pest or weed control at 40 ppm (Botrytis cinerea; Botrytis cinerea, 120 h, asterisk: 40 ppm test suspension): 93%; pest or weed control at 40 ppm (Septoria nodorum; Parastagonospora nodorum, 192 h, asterisk: 40 ppm test suspension): 0%; pest or weed control at 40 ppm ([2]; 192 h, asterisk: 40 ppm test suspension): 93%; pest or weed control at 40 ppm (Septoria tritici; Zymoseptoria tritici, 504 h, asterisk: 40 ppm test suspension): 100%; pest or weed control at 40 ppm ([3]; 144 h, asterisk: 40 ppm test suspension): 0%"
Cc1nn(C)c(-c2ccc(F)cc2Br)c1C(O)c1c(F)cc(F)cc1F (stereo not shown) [compound 82],100,100,99,92,100,99,27,–
